Assay results: PubChem BioAssay (NCI)
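Test compounds were applied to cells in 96-well plates for 48 hours at 5 doses. GI50 is the concentration that inhibits growth by half. The concentration for full growth arrest is given as TGI.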

Experiments:
Test in all cases: DTP human tumour cell line panel, 48 h
[1] = test system: MOLT-4 leukemia
[2] = test system: HOP-62 NSCLC
[3] = test system: HT29 colon
[4] = test system: SK-MEL-5 melanoma
[5] = test system: NCI-H226 lung
[6] = test system: BT-549 breast
[7] = test system: CCRF-CEM leukemia
[8] = test system: HCT-116 colon
[9] = test system: HOP-92 NSCLC
[10] = test system: SK-MEL-2 melanoma

SMILES | GI50 [1] [µM] | TGI [1] [µM] | GI50 [2] [µM] | TGI [2] [µM] | GI50 [3] [µM] | TGI [3] [µM] | GI50 [4] [µM] | TGI [4] [µM] | GI50 [5] [µM] | TGI [5] [µM] | GI50 [6] [µM] | TGI [6] [µM] | GI50 [7] [µM] | TGI [7] [µM] | GI50 [8] [µM] | TGI [8] [µM] | GI50 [9] [µM] | TGI [9] [µM] | TGI [10] [µM] | GI50 [10] [µM]
O=C(Oc1cccc(Nc2ncnc3ccccc23)c1)c1ccccc1Cl | > 100 | > 100 | 25.6 | 83.9 | 27.4 | > 100 | 14.6 | 28.2 | 16.3 | 43.8 | 24.8 | 62.3 | 19.3 | 65.1 | 14.7 | 33 |  |  |  | 
Cc1cc(S(=O)(=O)Nc2nnc(-c3ccco3)c(-c3ccco3)n2)c(SCc2ccccc2)cc1Cl | 17.9 | 53 | 25.5 | 53.3 | 23.1 | 47.1 | 17.5 | 32.5 | 22.4 | 69.9 | 25.3 | 50.2 | 23.2 | 66.1 | 33.2 | > 100 | 21.5 | 45.4 |  | 
CN(C)CCCNC(=O)c1cc(NC(=O)c2cc(NC(=O)CCCN3c4ccccc4C=Cc4ccccc43)cn2C)cn1C | 2.88 | > 100 | 10.2 | > 100 | 3.59 | > 100 |  |  | 19.4 | > 100 | 4.19 | 69.8 | 2.82 | 12.7 | 3.35 | > 100 | 10 | 78.7 |  | 
O=C(Nc1ncc([N+](=O)[O-])s1)c1cccc([N+](=O)[O-])c1 | 3.04 | > 34.1 | 3.75 | > 40.9 | 4.43 | 97.2 | 2.75 | 11.5 | 4.1 | > 60.1 | 2.78 | 11 | 2.39 | > 29.2 | 2.72 | 16.5 | 1.99 | 6.86 |  | 
N#Cc1c2ccccc2c2nnc3cc(C(F)(F)F)ccc3n12 | 34.7 | > 100 | 27.6 | 58.3 | 58 | > 100 |  |  |  |  | 57.2 | > 100 |  |  | 25.4 | > 100 | 51.5 | > 100 |  | 
Cc1ccc(C2=[N+]([O-])c3ccccc3C2=O)cc1 |  | > 70 |  | > 100 |  | > 65 |  | 27.5 |  | > 100 |  |  |  | 25.9 |  | > 54.4 |  | 39.2 | 97.7 | 
CC1=C2C(=CC(C)(CO)C2O)C(=O)C(C)(O)C12CC2 (centres undefined) |  | 0.0104 |  | 0.0147 |  | 0.0446 |  | 0.0036 |  | 0.015 |  |  | 0.00172 | 0.0686 |  | 0.0478 |  | 0.0144 | 0.00422 | 
CCOC(=O)c1[nH]c2cccc3c2c1CC(Br)C3=O (centres undefined) |  | 6.33 |  | 33.6 |  | 47.7 |  | 33.1 |  | 37.2 |  | 32.1 |  | > 100 |  | 7.79 |  | 33.6 |  | 
COc1c(O)cc2oc3cc(O)c(CC=C(C)C)c(O)c3c(=O)c2c1C/C=C(\C)CCC=C(C)C | 6.11 | 16.3 | 5.66 | 10.1 | 6.34 | 12.4 | 5.62 | 10.2 | 6.18 | 11.2 |  |  | 11.7 | 32.5 | 5.24 | 10.4 | 6.52 | 11.5 | 12.1 | 6.46
c1ccc(Oc2c3ccccc3nc3ccccc23)cc1 | 0.82 | 48 | 3.53 | 12.3 | 0.48 | 2.83 | 3.5 | 11.7 | 6.89 | 27.1 |  |  | 1.12 | > 100 | 0.714 | 3.13 | 2.24 | 8.63 | 17.6 | 3.95
COCC1N=C(c2ccc(OC)c(OCc3ccccc3)c2OC)O[C@H]1c1ccccc1 (some centres undefined) |  | 23.3 |  | > 100 |  | 59.7 |  | 25.7 |  | 81.1 |  |  |  | 60.8 |  | 34.5 |  | 42.4 | 53.3 | 
O=C1CC2(CCCc3sccc32)C(=O)N1 (centres undefined) |  | > 100 |  | > 100 |  | > 100 |  | > 100 |  | > 100 |  |  |  | > 100 |  | > 100 |  | > 100 | > 100 | 
CC(C)(C)C(=O)Nc1ccccc1Br |  | > 100 |  | > 100 |  | > 100 |  | > 100 |  | > 100 |  |  |  | > 100 |  | > 100 |  | > 100 | > 100 | 
O=NN(CCCl)C(=O)NCc1ccc[n+]([O-])c1 |  | > 100 |  | > 100 |  | > 100 |  | > 100 |  | > 100 |  |  |  | > 100 |  | > 100 |  | > 100 | > 100 | 
O=[N+]([O-])c1ccc(OCCNc2cccc3ccccc23)cc1 |  | > 100 |  | > 100 |  | > 100 |  | > 100 |  | > 100 |  |  |  | > 100 |  | > 100 |  | > 100 | > 100 | 
